From patent EP0260814B1, “Dopamine-Beta-hydroxylase inhibitors” (SMITHKLINE BEECHAM CORPORATION, priority 1986, dated 1988)
Each block holds one compound with its values, some of them ahead of it.

Key:
[1] = study comparing effects on blood pressure of hydroxy compounds and their methoxy analogues; assay type: in vivo; details: for blood pressure reductions: equivalent doses of hydroxy compound and methoxy analogue
From the text: In a study conducted to compare the effects on blood pressure of compounds wherein Y is -OH, X is 3-F or 3,5-F₂ and n is 1 to their Y is -OCH₃ analogues, the maximum blood pressure reduction observed after administration of the hydroxy compound in which X is 3-F was 18%, whereas one-half the dose of its methoxy analogue produced a 35% blood pressure reduction. Also, equivalent doses of the compound in which Y is -OH, X is 3,5-F₂, and n is 1 and its Y is -OCH₃ analogue produced, respectively, 20% and 35% blood pressure reductions.

[2] = target: T1, DBH (Homo sapiens, UniProt P09172); test: in vitro DBH inhibition: conversion of tyramine to octopamine in the presence of DBH, absorbance at 330 nm; assay type: biochemical
T1 sequence (P09172 1-617): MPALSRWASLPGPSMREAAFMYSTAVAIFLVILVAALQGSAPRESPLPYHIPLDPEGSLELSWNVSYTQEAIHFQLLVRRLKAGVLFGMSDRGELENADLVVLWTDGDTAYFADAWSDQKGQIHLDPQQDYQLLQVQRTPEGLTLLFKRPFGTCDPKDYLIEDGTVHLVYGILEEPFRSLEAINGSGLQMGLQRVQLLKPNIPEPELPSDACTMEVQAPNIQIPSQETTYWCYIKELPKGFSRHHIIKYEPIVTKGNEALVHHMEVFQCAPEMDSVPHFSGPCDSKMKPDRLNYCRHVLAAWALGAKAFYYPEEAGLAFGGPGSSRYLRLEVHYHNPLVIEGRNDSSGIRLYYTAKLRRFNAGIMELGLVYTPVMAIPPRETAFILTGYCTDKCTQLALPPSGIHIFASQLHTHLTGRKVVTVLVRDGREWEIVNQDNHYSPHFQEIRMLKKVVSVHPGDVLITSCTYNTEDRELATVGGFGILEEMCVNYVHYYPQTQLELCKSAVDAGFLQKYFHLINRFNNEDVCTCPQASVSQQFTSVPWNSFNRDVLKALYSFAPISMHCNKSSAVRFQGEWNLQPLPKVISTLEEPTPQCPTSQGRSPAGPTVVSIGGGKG
Description: Octopamine was assayed following sodium periodate oxidation to p-hydroxybenzaldehyde by measuring spectrophotometric absorbance at 330 nm. […] Melting points (mp) are given in °C. […]

[3] = test system: peripheral dopamine and norepinephrine levels; test: effects on peripheral dopamine and norepinephrine levels (procedure of DaPrada and Zürcher); assay type: in vivo, Spontaneously hypertensive rats
Description: Spontaneously hypertensive rats were dosed twice, the second dose being about 18 hr after the first, and were sacrificed about 2 hr after the second dose. […] In Table II, R= -H, Y= -OH and n=1; in Table II A, R= -H, Y= -OCH₃, and n=1.

[4] = target: T1, DBH; details: reported by Runti et al.; cited from earlier work

inhibition at 100 µM ([2]; at 10⁻⁴ molar concentration): 67%
Structure (SMILES): COc1ccc(Cn2ccnc2S)cc1F [Example 5, 1-(3-Fluoro-4-methoxybenzyl)-2-mercaptoimidazole]
blood pressure reduction ([1]; one-half the dose of the hydroxy compound in which X is 3-F): 35%

Structure (SMILES): COc1c(F)cc(Cn2ccnc2S)cc1F [Example 6, 1-(3,5-Difluoro-4-methoxybenzyl)-2-mercaptoimidazole]
DA/NE Ratio ([3]; Table IIA (R= -H, Y= -OCH₃, n=1), dose not given): .204^(1)
DA ([3]; Table IIA (R= -H, Y= -OCH₃, n=1), dose not given, dosed twice, sacrificed about 2 hr after second dose): 1.178 ± .087 µg/g
blood pressure reductions ([1]; dose not given): 35%

Structure (SMILES): Oc1c(F)cc(Cn2ccnc2S)cc1F [n=1, X=3,5-F₂, Y=OH, R=H]
DA/NE Ratio ([3]; Table II (for X= compounds: R= -H, Y= -OH, n=1), 50 mg/kg, dosed twice): .0824 .0128^(2)
DA (µg/g) ([3]; Table II (for X= compounds: R= -H, Y= -OH, n=1), 50 mg/kg, dosed twice, sacrificed about 2 hr after second dose): .708 .068^(1) µg/g
blood pressure reductions ([1]; dose not given): 20%

IC50 ([2]; molar concentration of compound at which DBH activity was halved, read-out: IC₅₀): 1.4 µM
Structure (SMILES): Oc1ccc(Cn2ccnc2S)cc1F [n=1, X=3-F, Y=OH, R=H]
maximum blood pressure reduction ([1]; after administration of the hydroxy compound, dose not given): 18%

Structure (SMILES): O=C(O)c1ccc(Cc2ccc(O)cc2)cn1 [phenypicolinic acid]
inhibitory activity relative to fusaric acid [4]: twice the inhibitory activity of fusaric acid
